From ChEMBL document CHEMBL5465560, “Selectivity Literature for EUbOPEN Chemogenomic Library” (2024)

Legend:
[1] = target: Receptor tyrosine-protein kinase erbB-2 (Homo sapiens, UniProt P04626); conditions: at 10 µM
[2] = target: Serine/threonine-protein kinase B-raf (Homo sapiens, UniProt P15056, V600E); assay: Selectivity interaction (Radiometric kinase assay (using 10 uM ATP)) EUB0000601a BRAF
[3] = target: T1, Muscarinic acetylcholine receptor M1 (Homo sapiens) (UniProt P11229); assay: Selectivity interaction (Panel of kinases, GPCRs, ion channels and transporters (enzymatic assay)) EUB0000266bCl CHRM1
T1 sequence (whole entry): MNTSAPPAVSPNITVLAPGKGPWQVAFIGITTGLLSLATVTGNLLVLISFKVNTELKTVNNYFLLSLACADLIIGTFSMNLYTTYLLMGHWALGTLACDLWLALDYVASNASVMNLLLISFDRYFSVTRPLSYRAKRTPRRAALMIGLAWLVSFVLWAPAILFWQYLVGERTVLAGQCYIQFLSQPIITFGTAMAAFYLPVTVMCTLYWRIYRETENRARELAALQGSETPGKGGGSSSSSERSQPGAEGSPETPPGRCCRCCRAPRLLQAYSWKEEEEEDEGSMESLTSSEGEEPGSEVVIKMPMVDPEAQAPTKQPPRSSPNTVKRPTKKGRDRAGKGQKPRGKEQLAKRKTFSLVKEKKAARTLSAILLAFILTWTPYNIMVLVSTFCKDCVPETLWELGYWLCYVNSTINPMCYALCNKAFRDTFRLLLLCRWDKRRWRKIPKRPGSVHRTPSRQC

[4] = target: T2, Protein arginine N-methyltransferase 9 (Homo sapiens) (UniProt Q6P2P2); conditions: at 1 µM
T2 sequence (whole entry): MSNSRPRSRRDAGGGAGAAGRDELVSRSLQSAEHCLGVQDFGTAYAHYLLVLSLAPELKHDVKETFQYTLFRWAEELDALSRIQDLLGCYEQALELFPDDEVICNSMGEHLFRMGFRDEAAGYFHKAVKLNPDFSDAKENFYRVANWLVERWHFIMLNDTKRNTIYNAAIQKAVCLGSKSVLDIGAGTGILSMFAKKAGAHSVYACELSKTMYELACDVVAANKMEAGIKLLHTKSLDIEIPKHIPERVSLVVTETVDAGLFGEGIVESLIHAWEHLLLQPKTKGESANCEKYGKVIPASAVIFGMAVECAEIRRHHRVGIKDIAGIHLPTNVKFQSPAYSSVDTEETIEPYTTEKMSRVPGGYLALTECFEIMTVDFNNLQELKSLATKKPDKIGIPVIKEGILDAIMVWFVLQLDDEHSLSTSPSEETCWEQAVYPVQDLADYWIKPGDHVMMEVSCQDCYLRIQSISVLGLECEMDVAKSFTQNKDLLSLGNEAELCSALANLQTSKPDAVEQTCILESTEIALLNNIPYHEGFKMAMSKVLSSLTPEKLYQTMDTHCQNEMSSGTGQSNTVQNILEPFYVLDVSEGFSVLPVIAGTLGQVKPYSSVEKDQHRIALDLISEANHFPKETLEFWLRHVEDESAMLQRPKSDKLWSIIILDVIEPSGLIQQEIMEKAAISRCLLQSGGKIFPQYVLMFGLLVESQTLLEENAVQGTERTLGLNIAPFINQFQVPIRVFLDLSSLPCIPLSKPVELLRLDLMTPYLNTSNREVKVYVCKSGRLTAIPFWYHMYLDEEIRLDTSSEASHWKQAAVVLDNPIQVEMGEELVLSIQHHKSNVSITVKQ

[5] = target: Serine/threonine-protein kinase 24 (Homo sapiens) (UniProt Q9Y6E0); assay: Selectivity interaction (KinomeScan (DiscoverX)) EUB0000699a STK24; conditions: at 10 µM
[6] = target: T3, Serine/threonine-protein kinase Nek10 (Homo sapiens) (UniProt Q6ZWH5); assay: Selectivity interaction (KinomeScan (DiscoverX)) EUB0000229b NEK10; conditions: at 10 µM
T3 sequence (whole entry): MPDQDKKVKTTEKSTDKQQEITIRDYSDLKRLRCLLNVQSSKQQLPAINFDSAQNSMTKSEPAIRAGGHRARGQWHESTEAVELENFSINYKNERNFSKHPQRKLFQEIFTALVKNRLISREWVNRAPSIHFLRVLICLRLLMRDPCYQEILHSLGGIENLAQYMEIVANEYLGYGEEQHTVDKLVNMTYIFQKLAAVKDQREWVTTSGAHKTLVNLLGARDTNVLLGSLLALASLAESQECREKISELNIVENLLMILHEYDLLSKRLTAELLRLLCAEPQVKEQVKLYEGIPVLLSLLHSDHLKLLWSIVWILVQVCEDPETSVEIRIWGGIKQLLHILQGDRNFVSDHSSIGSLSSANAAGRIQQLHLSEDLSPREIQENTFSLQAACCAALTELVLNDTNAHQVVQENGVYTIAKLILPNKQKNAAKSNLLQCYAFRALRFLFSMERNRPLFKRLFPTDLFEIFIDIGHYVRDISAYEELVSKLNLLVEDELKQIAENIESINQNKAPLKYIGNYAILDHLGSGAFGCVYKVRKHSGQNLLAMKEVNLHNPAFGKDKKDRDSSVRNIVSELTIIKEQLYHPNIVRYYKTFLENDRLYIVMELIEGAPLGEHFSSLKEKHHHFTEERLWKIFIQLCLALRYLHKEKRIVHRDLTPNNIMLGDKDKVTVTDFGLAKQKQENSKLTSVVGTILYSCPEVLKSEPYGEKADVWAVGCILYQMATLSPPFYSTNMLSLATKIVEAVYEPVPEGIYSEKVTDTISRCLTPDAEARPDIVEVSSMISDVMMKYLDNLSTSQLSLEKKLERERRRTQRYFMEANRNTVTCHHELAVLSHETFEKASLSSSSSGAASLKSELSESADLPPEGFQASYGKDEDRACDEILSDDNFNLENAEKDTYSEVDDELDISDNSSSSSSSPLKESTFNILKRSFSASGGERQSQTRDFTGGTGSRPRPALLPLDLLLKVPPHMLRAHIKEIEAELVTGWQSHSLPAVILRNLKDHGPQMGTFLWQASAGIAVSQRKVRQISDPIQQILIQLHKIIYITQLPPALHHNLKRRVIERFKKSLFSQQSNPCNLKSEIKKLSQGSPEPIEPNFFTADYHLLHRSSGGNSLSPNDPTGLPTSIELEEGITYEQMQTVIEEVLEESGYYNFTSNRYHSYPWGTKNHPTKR

[7] = target: TGF-beta receptor type-2 (Homo sapiens) (UniProt P37173); assay: Selectivity interaction (KinomeScan (DiscoverX)) EUB0001079a TGFBR2; conditions: at 1 µM
[8] = target: cAMP-dependent protein kinase catalytic subunit beta (Homo sapiens) (UniProt P22694); assay: Selectivity interaction (KinomeScan (DiscoverX)) EUB0000092b PRKACB; conditions: at 10 µM

Chain of Serine/threonine-protein kinase 24 (Homo sapiens) (Q9Y6E0 whole entry, looked up): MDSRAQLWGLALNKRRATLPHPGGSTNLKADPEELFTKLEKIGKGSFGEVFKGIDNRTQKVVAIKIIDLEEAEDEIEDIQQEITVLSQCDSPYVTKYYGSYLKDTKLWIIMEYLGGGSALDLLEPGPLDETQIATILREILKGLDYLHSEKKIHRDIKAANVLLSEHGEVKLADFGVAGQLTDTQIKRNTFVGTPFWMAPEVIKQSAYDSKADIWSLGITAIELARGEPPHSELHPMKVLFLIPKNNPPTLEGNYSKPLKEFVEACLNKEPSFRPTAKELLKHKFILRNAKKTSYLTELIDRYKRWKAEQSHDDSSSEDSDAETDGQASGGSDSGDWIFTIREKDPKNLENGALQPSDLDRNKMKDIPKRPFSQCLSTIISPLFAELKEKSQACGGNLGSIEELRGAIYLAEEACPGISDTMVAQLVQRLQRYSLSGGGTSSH
Chain of Receptor tyrosine-protein kinase erbB-2 (P04626 whole entry): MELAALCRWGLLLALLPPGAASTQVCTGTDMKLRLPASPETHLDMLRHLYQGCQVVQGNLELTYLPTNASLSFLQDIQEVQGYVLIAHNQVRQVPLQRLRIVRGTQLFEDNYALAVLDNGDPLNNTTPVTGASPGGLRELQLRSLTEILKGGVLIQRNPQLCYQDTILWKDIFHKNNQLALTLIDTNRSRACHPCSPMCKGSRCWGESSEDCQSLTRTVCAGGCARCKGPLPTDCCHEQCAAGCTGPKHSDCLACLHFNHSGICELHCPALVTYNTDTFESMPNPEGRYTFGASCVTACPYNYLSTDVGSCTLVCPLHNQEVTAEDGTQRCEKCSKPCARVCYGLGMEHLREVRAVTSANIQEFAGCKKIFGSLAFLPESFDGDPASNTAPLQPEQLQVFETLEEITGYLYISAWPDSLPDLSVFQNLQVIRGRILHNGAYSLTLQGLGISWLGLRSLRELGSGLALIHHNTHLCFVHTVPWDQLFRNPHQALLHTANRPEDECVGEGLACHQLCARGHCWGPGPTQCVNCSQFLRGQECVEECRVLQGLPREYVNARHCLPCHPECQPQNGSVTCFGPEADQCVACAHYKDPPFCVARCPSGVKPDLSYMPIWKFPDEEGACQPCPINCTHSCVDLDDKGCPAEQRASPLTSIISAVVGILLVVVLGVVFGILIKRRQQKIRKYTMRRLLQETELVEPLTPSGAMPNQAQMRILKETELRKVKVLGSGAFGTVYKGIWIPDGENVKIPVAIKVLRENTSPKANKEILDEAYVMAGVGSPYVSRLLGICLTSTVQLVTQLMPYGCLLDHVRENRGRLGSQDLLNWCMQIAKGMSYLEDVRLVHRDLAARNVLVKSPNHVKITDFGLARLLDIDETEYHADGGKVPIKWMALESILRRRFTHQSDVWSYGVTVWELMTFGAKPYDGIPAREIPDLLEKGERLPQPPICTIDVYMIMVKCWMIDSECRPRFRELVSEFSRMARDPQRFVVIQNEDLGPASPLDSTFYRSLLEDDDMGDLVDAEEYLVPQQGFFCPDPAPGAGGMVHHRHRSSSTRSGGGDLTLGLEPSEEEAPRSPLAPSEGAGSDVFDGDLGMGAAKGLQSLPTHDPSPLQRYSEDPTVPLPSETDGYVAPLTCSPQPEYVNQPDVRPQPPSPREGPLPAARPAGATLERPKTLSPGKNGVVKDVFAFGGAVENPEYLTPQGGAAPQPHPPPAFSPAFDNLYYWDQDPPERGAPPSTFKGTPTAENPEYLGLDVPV
Chain of TGF-beta receptor type-2 (Homo sapiens) (P37173 whole entry): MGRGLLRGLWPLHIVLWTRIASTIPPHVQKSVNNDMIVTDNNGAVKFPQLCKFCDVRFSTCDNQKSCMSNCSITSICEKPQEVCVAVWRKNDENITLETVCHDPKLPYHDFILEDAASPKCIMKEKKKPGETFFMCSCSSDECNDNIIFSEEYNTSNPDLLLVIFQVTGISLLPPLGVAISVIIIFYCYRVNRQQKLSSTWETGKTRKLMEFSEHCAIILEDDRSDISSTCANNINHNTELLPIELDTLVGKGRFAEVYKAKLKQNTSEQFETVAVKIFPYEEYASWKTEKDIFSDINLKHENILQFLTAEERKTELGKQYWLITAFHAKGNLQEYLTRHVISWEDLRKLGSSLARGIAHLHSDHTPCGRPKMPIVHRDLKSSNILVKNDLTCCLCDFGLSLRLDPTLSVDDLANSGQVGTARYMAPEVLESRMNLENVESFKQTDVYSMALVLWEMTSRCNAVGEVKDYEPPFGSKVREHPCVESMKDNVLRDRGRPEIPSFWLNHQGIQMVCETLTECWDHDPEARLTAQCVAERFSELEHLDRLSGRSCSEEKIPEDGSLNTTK
Chain of Serine/threonine-protein kinase B-raf (P15056 2-766 V600E limits assumed): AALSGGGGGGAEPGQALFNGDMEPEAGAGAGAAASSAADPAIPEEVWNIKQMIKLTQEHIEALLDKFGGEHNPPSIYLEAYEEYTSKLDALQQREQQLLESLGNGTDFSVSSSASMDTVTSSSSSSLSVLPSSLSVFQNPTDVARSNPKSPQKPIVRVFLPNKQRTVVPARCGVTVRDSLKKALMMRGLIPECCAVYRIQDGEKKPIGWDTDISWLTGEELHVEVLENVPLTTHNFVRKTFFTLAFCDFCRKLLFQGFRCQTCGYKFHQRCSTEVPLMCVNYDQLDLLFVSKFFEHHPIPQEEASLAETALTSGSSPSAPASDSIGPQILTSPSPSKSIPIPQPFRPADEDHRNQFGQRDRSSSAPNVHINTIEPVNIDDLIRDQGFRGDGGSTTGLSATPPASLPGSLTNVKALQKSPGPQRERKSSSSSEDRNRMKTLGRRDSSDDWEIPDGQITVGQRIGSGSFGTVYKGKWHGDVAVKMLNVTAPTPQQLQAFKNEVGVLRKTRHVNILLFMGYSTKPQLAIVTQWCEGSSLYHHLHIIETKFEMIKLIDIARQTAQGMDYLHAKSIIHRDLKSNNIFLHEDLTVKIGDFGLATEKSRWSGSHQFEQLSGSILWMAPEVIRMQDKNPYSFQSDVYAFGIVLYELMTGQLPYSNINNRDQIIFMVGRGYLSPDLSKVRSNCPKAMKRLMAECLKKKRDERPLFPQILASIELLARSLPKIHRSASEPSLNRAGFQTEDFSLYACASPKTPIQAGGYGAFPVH

Structure (SMILES): Cc1cc([C@@H](C)Nc2ccccc2C(=O)O)c2nc(N3CCOCC3)cc(=O)n2c1 [AZD-6482]
- % of control [1]: 100%

Structure (SMILES): CCc1cc(Nc2nccc(-c3c(-c4ccc(OC)c(C(=O)Nc5c(F)cccc5F)c4)nc4ccccn34)n2)c(OC)cc1N1CCC(N2CCN(S(C)(=O)=O)CC2)CC1
- IC50 [2]: > 2000 nM

Structure (SMILES): CCn1c(-c2nc3cc(C(=O)N4CCCC(N)C4)ccc3n2C)cc2ccccc21 (stereo not drawn)
- pXC50 [3]: 4.8 M

Structure (SMILES): CNCCN1CCC(c2cc(CN(C)C(=O)c3cccc(Oc4ccccc4)c3)ccn2)CC1
- % activity [4]: > 90%

Structure (SMILES): CCN(CC)CCCCNc1ncc2cc(-c3cc(OC)cc(OC)c3)c(NC(=O)NC(C)(C)C)nc2n1
- % of control [5]: 7%

Structure (SMILES): COc1cc(N(C)c2ccnc3ccc(C(F)(F)F)cc23)cc(OC)c1OC
- % binding [6]: 100%

Structure (SMILES): Nc1cnc(N2CCc3cc(S(=O)(=O)Nc4c(F)cc(Cl)cc4F)cc(N4CCCC4=O)c32)nc1 [TP-020n]
- % of control [7]: 92%

Structure (SMILES): CCC(=O)N1CCN(c2ccc(-n3c(=O)ccc4cnc5ccc(-c6cnc7ccccc7c6)cc5c43)cc2C(F)(F)F)CC1
- % of control [8]: 100%
